Experimental data from patent publication US20120172375A1, “COMPOUNDS AND METHODS OF PROMOTING OLIGODENDROCYTE PRECURSOR DIFFERENTIATION” (priority 2008, published 2012).
“Also recorded” adds a separate entry of the source.

Key:
[1] = system: cuprizone-fed C57B1/6J mice; experiment: Myelin protein (PLP/DM20, MOG) immunostaining densitometry in cuprizone-demyelinated mice; assay type: in vivo; conditions: i.p., two doses
Experimental: (§1) For in vivo experiments in mice, the cuprizone-mediated demyelination model was implemented as described elsewhere, (Sun et al., 2006; Wu et al., 2008). In brief, 9 week-old C57B1/J6 mice were fed with cuprizone supplemented chow (0.3%, Harlan) during 4-6 weeks. At the end of this period, while the mice were still on cuprizone diet, the animals were injected I.P. with the indicated concentrations of small molecules dissolved in DMSO. 72 hrs later, a second dose was administered and at that point the food was changed to regular chow. 48 hr after the second dose, the animals were sacrificed perfused with 4% paraformaldehyde (PFH) and the brain tissue processed or immunohistochemistry.
Immunodetection of oligodendrocyte and myelin markers was performed. In brief, Oligodendrocyte cells plated on PDL-coated dishes were initially fixed in 2% paraformaldehyde (PFA) for 10 min at room temperature (RT) and then 4% PFA for 15 min, washed three times with PBS and permeabilized with 0.1% Triton X100 for 10 min at RT. After blocking with 3% BSA in PBS for 60 min a RT, the cells were incubated with primary antibodies at the indicated concentrations overnight (ON) at 4° C. The cells were washed three times with cold PBS incubated with secondary antibodies for 45 min at RT, and washed again before mounting. Immunostaining of tissue sections prepared with a sliding microtome (30 μm) was performed. In brief, tris buffered saline (TBS) containing 100 nM Sodium fluoride (TBSS) was used the all dilutions and washes. For antigen retrieval, sections were washed 3 times in TBSS, incubated in 5% methanol and 3% H2O2 for 10 min, washed 2 times, and then incubated in 10% Triton X-100 for 20 min. Blocking of unspecific bonds was performed by incubating the tissue sections with 10% NGS for 1 hr. Primary antibodies were diluted in 3% BSA containing 0.02% Triton X-100 and sections were incubated overnight in this solution. The next day the sections were washed 3 times in TBSS, followed by 1 hr incubation in secondary antibodies (1:1000) at 4° C. […]

[2] = system: cuprizone-fed C57B1/6J mice; experiment: Remyelination after cuprizone-mediated demyelination, Black and Gold staining for total myelin; assay type: in vivo; conditions: i.p., two doses; for remyelination effect (Black and Gold stain, corpus callosum): 5-100 mg/kg
Experimental: as §1
Brain tissue staining with Black and Gold to detect total myelin was performed in 30 μm microtome floating sections after three washes in a saline solution (0.9% NaCl). Subsequently, the tissue sections were submerged in a 0.1% Black and Gold solution in saline preheated to 60° C. for 5 min. The tissue was incubated in that solution for 8-10 min. or until achievement of purple color was observed. After washing several times with saline, the staining was fixed with a solution of 2% sodium thiosulfate for 3 min., washed with saline three times and finally mounted and visualized.
Demyelination in mouse brain induced by the copper chelator cuprizone administered in the diet is a well established animal model to study demyelination and subsequent remyelination after cuprizone withdrawal. The effect of cuprizone is evident in several brain areas being the demyeliantion of the corpus callosum the most reliable and consistent. In this study, we analyzed the effect of compounds A, A-7 and B on remyelination of six week cuprizone-fed C57B1/6J mice. Compounds were administered i.p. at the end of the sixth week (5-100 mg/kg) while the mice were still maintained on the cuprizone diet for three more days. At that point, a second injection of compounds was performed and then the mice were returned to regular chow for two more days to allow the natural remyelination process to take place. Mice were then sacrificed and the brain tissue prepared for immunohistochemistry.

[3] = system: lysolecithin-demyelinated cerebellar explants; experiment: Myelin regeneration in lysolecithin-demyelinated cerebellar explants; assay type: cell-based, mouse; conditions: 1 μM, 10 additional days after lysolecithin
Experimental: Myelination-demyelination-remyelination studies in cerebella organotypic cultures were carried out. In brief, after careful dissection to keep the tissue intact, cerebella of postnatal day 4-7 wild type or Plp-EGFP mouse pups was sectioned at 400-μm thickness using a Leica VT1000S vibratome. Cerebella sections were then plated on insert plates and a few droplets of high-glucose media were added to cover the tissue during the first 6 hours to allow attachment of the slices to the insert plate surface. Media used was 50% DMEM/F12, 25% Hank's buffered salt solution (both from Gibco), 25% horse serum, 5 mg/ml glucose and a combination of streptomycin/penicillin (Gibco). When the slices were firmly attached, fresh media was added to cover the tissue and the cultures were maintained in this conditions during 4-10 days. To induce demyelination, 0.5 mg/ml lysolecithin (I′-monoacyl-L-3-glycerylphosphorylcholine, Sigma) was added to the culture media for 17 hrs. After this time, the culture media was changed and treatments were performed by adding small molecules or DMSO controls to the plates for 4-10 additional days. Demyelination-remyelination was assessed by green fluorescence (Plp-EGFP) or immunostaining for myelin-axonal proteins and visualization was performed by confocal microscopy.
Acute demyelination of cerebellum tissue explants has been previously used as a reliable methodology to study myelin formation and regeneration Taking advantage of our Pip-EGFP mouse, which allowed for the accurate tracking of oligodendrocyte cell behavior during myelination/demyelination/remyelination and the cerebellar explants methodology, we analyzed the effect of compounds A, A-7 and B or oligodendrocyte cells and myelin regeneration after demyeliantion of the cerebellar explants with lysolecithin. Cerebellum from postnatal day 7 mice pups (P7) was sectioned and maintained in culture (see methods). […]

Q: With `CCS(=O)(=O)N1CCN(C(=O)COc2ccc(-c3ccccc3)cc2)CC1` [Compound A, 1-[(4-biphenylyloxy)acetyl]-4-(ethylsulfonyl)piperazine] as the compound, how does the “effect on myelin protein expression / remyelination enhancement” value [1] read?
A: recovery of myelin protein expression

Q: What about the “myelin levels relative to the non-cuprizone-fed animals (Black and Gold)” value ([2]; 100 mg/kg) of the same compound?
A: 80%

Q: And the “remyelination effect (Black and Gold stain, corpus callosum)” value (“remyelination effect” below) [2]?
A: highly significant at the lowest administered dose (5 mg/kg); also recorded: enhance remyelination

Q: And the “oligodendrocyte cell recovery and myelin regeneration” value [3]?
A: remarkable oligodendrocyte cell recovery; also recorded: evident oligodendrocyte cell recovery and myelin regeneration

Q: `CC(C)N1CCN(C(=O)COc2ccc(-c3ccccc3)cc2)CC1` [Compound A-7, 1-(Biphenyl-4-yloxy)acetyl-4-isopropylpiperazine] was tested. Which “effect on myelin protein expression / remyelination enhancement” value [1] did it give?
A: recovery of myelin protein expression

Q: What about the “remyelination effect” value [2] of the same compound?
A: highly significant remyelination effect; also recorded: enhance remyelination

Q: And the “oligodendrocyte cell recovery and myelin regeneration” value [3]?
A: remarkable oligodendrocyte cell recovery; also recorded: evident oligodendrocyte cell recovery and myelin regeneration

Q: Which “effect on myelin protein expression / remyelination enhancement” value [1] does the source give for `O=[N+]([O-])c1ccc(F)c(NS(=O)(=O)c2ccc(F)cc2)c1` [Compound B, 4-fluoro-N-(2-fluoro-5-nitrophenyl)benzenesulfonamide] here?
A: did not detect any relevant effect

Q: What about the “remyelination effect” value [2] of the same compound?
A: did not detect a measurable induction of myelin recovery

Q: And the “oligodendrocyte cell recovery and myelin regeneration” value [3]?
A: remarkable oligodendrocyte cell recovery; also recorded: evident oligodendrocyte cell recovery and myelin regeneration
